Columns and labels:
Type in all cases: cell-based
[1] = tested on: various MM cell lines; experiment: In vitro ADC activity, MM cell lines, CellTiter-Glo (Example 20, Table 39); conditions: 5 days treatment; for Amax: in %
[2] = tested on: KMS-27; experiment: CellTiter-Glo proliferation assay, anti-CD48 ADCs (Example 18); conditions: KMS-27, 5 days
Protocol: (§1) The CD48 MCL-1 antibody drug conjugate CD48-L7-P1, isotype IgG1-L7-P1 ADC, and MCL-1 free payload P1 were tested against four endogenous cancer cell lines. KMS-21 BM (JCRB No. JCRB11185 cultured in RPMI-1640+10% FBS), KMS-20 (JCRB No. JCRB1196 cultured in RPMI-1640+10% FBS), KMS-27 (JCRB No. JCRB1188 cultured in RPMI-1640+10% FBS), and NCI-H929 (ATCC No. CRL-9068 cultured in RPMI-1640+10% FBS+0.05 mM 2-mercaptoethanol).
(§2) The ability of the CD48 MCL-1 antibody drug conjugate CD48-L7-P1, isotype IgG1-L7-P1 ADC, and MCL-1 free payload P1 to inhibit cell proliferation and survival was assessed using the Promega CellTiter-Glo® proliferation assay.
(§3) Cell lines were cultured in media that is optimal for their growth at 5% CO2, 37° C. in a tissue culture incubator. Prior to seeding for the proliferation assay, the cells were split at least 2 days before the assay to ensure optimal growth density. On the day of seeding, suspension cells were harvested. Cell viability and cell density were determined using a cell counter (Vi-Cell XR Cell Viability Analyzer, Beckman Coulter). […] Cells were seeded at a density of 1,000 cells per well in 45 μL of standard growth media. Plates were incubated at 5% CO2, 37° C. overnight in a tissue culture incubator. The next day, free MCL-1 payload (P1), targeting MCL-1 ADC, and non-targeting isotype ADCs were prepared at 10× in standard growth media. The prepared drug treatments were then added to the cells resulting in final concentrations of 0.0005-500 nM and a final volume of 50 μL per well. Each drug concentration was tested in quadruplets. Plates were incubated at 5% CO2, 37° C. for 5 days in a tissue culture incubator, after which cell viability was assessed through the addition of 25 μL of CellTiter Glo® (Promega, cat #G7573), a reagent which lyses cells and measures total adenosine triphosphate (ATP) content. Plates were incubated at room temperature for 10 minutes to stabilize luminescent signals prior to reading using a luminescence reader (EnVision Multilabel Plate Reader, PerkinElmer). To evaluate the effect of the drug treatments, luminescent counts from wells containing untreated cells (100% viability) were used to normalize treated samples. A variable slope model was applied to fit a nonlinear regression curve to the data in GraphPad PRISM version 7.02 software. IC50 and Amax values were extrapolated from the resultant curves.
(§4) The dose response curves of representative cancer cell lines expressing the CD48 target of interest are shown in FIG. 22 (square=CD48-L7-P1, circle IgG-L7-P1, triangle=free MCL1 payload P1).

[3] = tested on: NCI-H929; experiment: as above; conditions: NCI-H929, 5 days
Protocol: as §1, §2, §3, §4

[4] = tested on: KMS-20; experiment: as above; conditions: KMS-20, 5 days
Protocol: as §1, §2, §3, §4

[5] = tested on: KMS-21 BM; experiment: as above; conditions: 5 days
Protocol: as §1, §2, §3, §4

Compound: COc1ccccc1-c1nccc(COc2ccccc2C[C@@H](Oc2ncnc3sc(-c4ccc(F)cc4)c(-c4ccc(OCCN5CCN(C)CC5)c(Cl)c4C)c23)C(=O)O)n1 [P1, (2R)-2-[5-[3-chloro-2-methyl-4-[2-(4-methylpiperazin-1-yl)ethoxy]phenyl]-6-(4-fluorophenyl)thieno[2,3-d]pyrimidin-4-yl]oxy-3-[2-[[2-(2-methoxyphenyl)pyrimidin-4-yl]methoxy]phenyl]propanoic acid]
- GI50 ([1]; 120 h, Ip1 cell line): 7 nM
- GI50 ([1]; 120 h, u266b1 cell line): 283 nM
- GI50 ([1]; Homo sapiens, AMO1, 120 h, amo1 cell line): 5 nM
- GI50 ([1]; Homo sapiens, EJM, 120 h, ejm cell line): 61 nM
- GI50 ([1]; Homo sapiens, KMS-11, 120 h, kms11 cell line): 98 nM
- GI50 ([1]; Homo sapiens, KMS-12-BM, 120 h, kms12bm cell line): 11 nM
- GI50 ([1]; Homo sapiens, L-363, 120 h, L363 cell line): 3 nM
- GI50 ([1]; Homo sapiens, MOLP-8, 120 h, molp8 cell line): 1 nM
- GI50 ([1]; Homo sapiens, NCI-H929, 120 h, h929 cell line): 1 nM
- GI50 ([1]; Homo sapiens, OPM-2, 120 h, opm2 cell line): 1 nM
- GI50 ([1]; Homo sapiens, RPMI-8226, 120 h, rpmi8226 cell line): 2 nM
- GI50 ([1]; Homo sapiens, SK-MM-2, 120 h, skmm2 cell line): > 10000 nM
- Amax ([1]; Ip1 cell line): −58
- GI50 ([1]; KE-97, 120 h, ke97 cell line): 7910 nM
- GI50 ([1]; KHM-1B, 120 h, khm1b cell line): 2 nM
- GI50 ([1]; KMM-1, 120 h, kmm1 cell line): 154 nM
- GI50 ([1]; KMS-20, 120 h, kms20 cell line): 8 nM
- GI50 ([1]; KMS-21BM, 120 h, kms21bm cell line): 1 nM
- GI50 ([1]; KMS-26, 120 h, kms26 cell line): 60 nM
- GI50 ([1]; KMS-27, 120 h, kms27 cell line): 1 nM
- GI50 ([1]; KMS-28BM, 120 h, kms28bm cell line): 6 nM
- GI50 ([1]; KMS-34, 120 h, kms34 cell line): 498 nM
- GI50 ([1]; Karpas-620, 120 h, karpas620 cell line): 205 nM
- Amax ([1]; L363 cell line): −47
- Amax ([1]; amo1 cell line): −20
- Amax ([1]; ejm cell line): −93
- Amax ([1]; h929 cell line): −74
- Amax ([1]; karpas620 cell line): −43
- Amax ([1]; ke97 cell line): 21
- Amax ([1]; khm1b cell line): −84
- Amax ([1]; kmm1 cell line): −67
- Amax ([1]; kms11 cell line): −62
- Amax ([1]; kms12bm cell line): −79
- Amax ([1]; kms20 cell line): −88
- Amax ([1]; kms21bm cell line): −76
- Amax ([1]; kms26 cell line): −49
- Amax ([1]; kms27 cell line): −89
- Amax ([1]; kms28bm cell line): −42
- Amax ([1]; kms34 cell line): −64
- Amax ([1]; molp8 cell line): −74
- Amax ([1]; opm2 cell line): −77
- Amax ([1]; rpmi8226 cell line): −91
- Amax ([1]; skmm2 cell line): 112
- Amax ([1]; u266b1 cell line): −24
- IC50 ([2]; 120 h): 6.98 nM
- Amax ([2]; in %): 88.98
- IC50 ([3]; Homo sapiens, 120 h): 2.04 nM
- Amax ([3]; in %): 109.1
- IC50 ([4]; 120 h): 4.95 nM
- Amax ([4]; in %): 94.34
- IC50 ([5]; 120 h): 0.941 nM
- Amax ([5]; in %): 85.27
